Measured values: US7279325B2, “Method for identifying antagonist compounds of the estrogen-related receptor 3 (ERR3) by using the x-ray structural coordinates of the ligand binding domain” (priority 2002, dated 2007)

Assays:
[1] = target: T1, ERR3 (Homo sapiens, UniProt P62508); settings: Coward et al. (2001); cited from earlier work
T1 sequence (P62508 1-458): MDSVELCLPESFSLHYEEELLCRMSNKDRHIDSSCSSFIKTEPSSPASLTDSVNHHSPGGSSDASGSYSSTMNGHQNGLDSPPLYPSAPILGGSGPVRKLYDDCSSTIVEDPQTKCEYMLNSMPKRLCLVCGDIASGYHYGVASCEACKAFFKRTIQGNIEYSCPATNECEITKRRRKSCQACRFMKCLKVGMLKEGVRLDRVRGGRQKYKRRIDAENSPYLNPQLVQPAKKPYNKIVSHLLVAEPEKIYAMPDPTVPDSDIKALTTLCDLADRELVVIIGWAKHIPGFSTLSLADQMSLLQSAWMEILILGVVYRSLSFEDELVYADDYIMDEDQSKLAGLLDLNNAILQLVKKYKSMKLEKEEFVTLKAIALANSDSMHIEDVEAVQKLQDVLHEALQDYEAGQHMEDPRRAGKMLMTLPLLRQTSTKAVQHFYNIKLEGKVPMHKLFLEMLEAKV

[2] = target: T2, mutant ERR3 LBDs (A272F, A272L, F435L, L345I, L345I-F435L, L345I-F435L-F450L)/GST-SRC-1 RID complex (Homo sapiens, UniProt P62508, F435L); assay: In vitro protein-protein interaction assay, mutant ERR3 LBDs with SRC-1 RID (native gels); assay type: biochemical; settings: 10^−4M 4-OHT
T2 construct: wt or mutant ERR3 LBDs (residues 229 to 458, human and murine receptor are identical); made in house; host or cells: E. coli BL21(DE3)
T2 sequence (P62508 229-458 F435L): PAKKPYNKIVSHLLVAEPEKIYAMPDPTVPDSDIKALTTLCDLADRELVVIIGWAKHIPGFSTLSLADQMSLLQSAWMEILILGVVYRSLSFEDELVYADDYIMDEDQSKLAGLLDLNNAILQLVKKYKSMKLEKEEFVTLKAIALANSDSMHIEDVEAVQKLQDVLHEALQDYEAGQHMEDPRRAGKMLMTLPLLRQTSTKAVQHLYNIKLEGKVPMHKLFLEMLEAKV
Method: (§1) The His-tagged wt or mutant ERR3 LBDs, the GST-tagged SRC-1 RID, and GST were expressed in E. coli BL21(DE3) and partially purified by affinity chromatography using TALON (Clontech) or Glutathione Sepharose 4B (Pharmacia), respectively. […] After purification the proteins were dialyzed in assay buffer (20 mM Tris.HCl pH 8.0, 200 mM NaCl), and concentrated. For the protein-protein interaction assays […] (about 70 pmol) of His-tagged wt or mutant ERR3 LBD were mixed with […] (about 100 pmol) of GST-tagged SRC-1 RID or […] of GST and incubated on ice for 10 mins. […] Protein complexes were resolved on native polyacrylamide gradient gels (8%-25%) using the Phast System (Pharmacia).
(§2) In vitro interaction assays with the RID (amino acids 617-764) of the coactivator SRC-1 has first been performed. Hexahistidine (His)-tagged ERR3, LBD and GST-tagged SRC-1 RID were partially purified by affinity chromatography, the proteins were mixed, and complex formation was monitored on native polyacrylamide gels. […] Complexes were separated on native polyacrylamide gradient gels.
(§3) In addition, the ligand-binding pocket of ERR3 has been enlarged by either mutating F435 to leucine or by introducing a triple point mutation (L345I-F435L-F450L) which creates an “ERα-like” ligand-binding pocket.

[3] = tested on: mutant ERR3 LBDs (A272F, A272L, F435L, L345I, L345I-F435L, L345I-F435L-F450L)/GST-SRC-1 RID complex; assay: as above; assay type: biochemical, human
Method: as §1, §2, §3

[4] = target: full length ERR3 (Homo sapiens, UniProt P62508); assay: Transient transfection assay, full length ERR3 with ERE(2×)-TK-LUC reporter; assay type: cell-based; settings: in the presence of 4-OHT
Method: COS-1 and BHK cells were cultured in DMEM supplemented with 5% FCS, penicillin, streptomycin, and glutamine. Neuro2A cells were cultured in EMEM supplemented with 10% FCS, penicillin, streptomycin, glutamine, and non-essential amino acids. Transient transfection assays were carried out in 24-well plates (0.5×10^5 cells per well for COS-1 and Neuro2A cells, 0.25×10^5 cells per well for BHK cells) using the standard calcium phosphate coprecipitation technique as described in Greiner et al. (Greiner et al., 1996). Cells were transfected with 250 ng of Gal4(5×)-TATA-LUC, Gal4(3×)-TK-LUC, or ERE(2×)-TK-LUC reporter plasmid and 50 ng per well of pCMX-Gal4-ERR3 or pCMX-ERR3 expression plasmid. The empty plasmids pCMX-Gal4 and pCMX served as control. […] Luciferase activity was assayed as described in Greiner et al. (1996). All experiments were repeated at least three times. B. Results B.1.

[5] = target: T3, ERR1 (Homo sapiens, UniProt P11474); settings: Coward et al. (2001); cited from earlier work
T3 sequence (P11474 1-423): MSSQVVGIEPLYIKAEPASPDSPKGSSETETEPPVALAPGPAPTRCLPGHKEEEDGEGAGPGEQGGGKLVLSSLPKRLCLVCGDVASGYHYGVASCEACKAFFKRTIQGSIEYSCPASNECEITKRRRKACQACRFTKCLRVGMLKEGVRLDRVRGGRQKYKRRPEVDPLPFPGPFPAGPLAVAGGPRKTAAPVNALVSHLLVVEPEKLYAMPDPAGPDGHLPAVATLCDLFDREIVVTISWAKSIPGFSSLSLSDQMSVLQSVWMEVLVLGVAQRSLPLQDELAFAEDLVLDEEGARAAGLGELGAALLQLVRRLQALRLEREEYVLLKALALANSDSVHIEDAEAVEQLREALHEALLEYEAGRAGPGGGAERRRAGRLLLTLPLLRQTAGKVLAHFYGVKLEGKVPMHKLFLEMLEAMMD

4-hydroxytamoxifen [4-OHT]
affinities of binding to ERR3 [1]: submicromolar | effect on the ERR3(F435L)/GST-SRC-1 RID complex [2]: still disrupted | effect on the complex between GST-SRC-1 RID and the mutants A272F or A272L ([3]; 10^−4M 4-OHT, ligand-binding cavity filled up): no effect | antagonist effect on ERR3 LBD mutants that contain a F435L mutation (F435L, L345I-F435L, L345I-F435L-F450L) in vitro ([3]; 10^−4M ligand): still acts as an antagonist | active repression of transcription of the TK promoter by full length ERR3 [4]: does not actively repress transcription | binding to ERR1 [5]: does not bind
